Series [1] addresses T1, CB2 receptor (Mus musculus, UniProt P47936).
T1 construct: membranes were prepared from frozen mouse spleen; from tissue; host or cells: mouse spleen
The series can be described thus: CB2 receptor binding assay ([3H] CP-55,940 displacement, mouse spleen membranes). The protocol: (§1) Membranes, previously frozen at −80° C., were thawed on ice. To the stirred suspension was added three volumes of TME (25 mM Tris-HCl buffer, 5 mM MgCl2 and 1 mM EDTA) at a pH 7.4. The suspension was incubated at 4° C. for 30 min. At the end of the incubation, the membranes were pelleted and washed three times with TME.
The treated membranes were subsequently used in the binding assay described below. Approximately 30 μg of membranes were incubated in silanized 96-well microtiter plate with TME containing 0.1% essentially fatty acid-free bovine serum albumin (BSA), 0.8 nM [^3H] […] Radioactivity was detected using MicroScint 20 scintillation cocktail added directly to the dried filterplates, and the filterplates were counted using a Packard Instruments Top-Count. […] Data collected from three independent experiments performed with duplicate determinations was normalized between 100% and 0% specific binding for [^3H] […] The normalized data was analyzed using a 4-parameter nonlinear logistic equation to yield IC50 values.
Silanized centrifuge tubes were used throughout to minimize receptor loss due to adsorption. The CB2 binding assay was conducted in the same manner as for the CB1 binding assay. The binding affinities (Ki) were also expressed in nanomoles (nM).

For series [2], the target named is T2, CB1 cannabinoid receptor (Rattus norvegicus, UniProt P20272).
T2 construct: membranes were prepared from rat forebrain membranes; from tissue; host or cells: rat forebrain
Description: CB1 receptor binding assay ([3H] CP-55,940 displacement, rat forebrain membranes). To be noted: 0.8 nM [3H] CP-55,940. How it is done: Some of the inventive compounds were tested for CB2 receptor binding affinity and for CB1 receptor affinity (to determine selectivity for the CB2 receptor). As used herein, “binding affinity” is represented by the Ki value which is the inhibition constant correlated with the concentration of an analog required to occupy the 50% of the total number (Bmax) of the receptors. The lower the Ki value the higher the binding affinity. […] For the CB1 receptor binding studies, membranes were prepared from rat forebrain membranes according to the procedure of P. R. Dodd et al, A Rapid Method for Preparing Synaptosomes: Comparison with Alternative Procedures, Brain Res., 107-118 (1981). The binding of the novel analogues to the CB1 cannabinoid receptor was assessed as described in W. A. Devane et al, Determination and Characterization of a Cannabinoid Receptor in a Rat Brain, Mol. Pharmacol., 34, 605-613 (1988) and A. Charalambous et al, 5′-azido Δ^8−THC: A Novel Photoaffinity Label for the Cannabinoid Receptor, J. Med. Chem., 35, 3076-3079 (1992) with the following changes. The above articles are incorporated by reference herein.
as §1
The treated membranes were subsequently used in the binding assay described below. Approximately 30 μg of membranes were incubated in silanized 96-well microtiter plate with TME containing 0.1% essentially fatty acid-free bovine serum albumin (BSA), 0.8 nM [^3H] CP-55,940, and various concentrations of test materials in a final volume of 200 μL. The assays were incubated for 1 hour at 30° C. and then immediately filtered using Packard Filtermate 196 harvester and Whatman GF/C filterplates and washed with wash buffer (TME) containing 0.5% BSA. Radioactivity was detected using MicroScint 20 scintillation cocktail added directly to the dried filterplates, and the filterplates were counted using a Packard Instruments Top-Count. Nonspecific binding was assessed using 100 nM CP-55,940. Data collected from three independent experiments performed with duplicate determinations was normalized between 100% and 0% specific binding for [^3H] CP-55,940, determined using buffer and 100 nM CP-55,940. The normalized data was analyzed using a 4-parameter nonlinear logistic equation to yield IC50 values. Data from at least two independent experiments performed in duplicate was used to calculate IC50 values which were converted to Ki values using the assumptions of Cheng et al, Relationship Between the Inhibition Constant (Ki) and the concentration of Inhibitor which causes 50% Inhibition (IC50) of an Enzymatic Reaction, Biochem. Pharmacol., 22, 3099-3102, (1973), which is incorporated by reference herein.

The nature of series [3]: Fluorescence assay protocol (absorption, excitation and emission scans in MeOH). The format is physicochemical. How it is done:
The fluorescent properties of some of the inventive compounds were examined using the following fluorescence assay protocol. All samples were processed in the same manner and diluted in JT BAKER PHOTREX Grade MeOH. Cuvettes and flasks were cleaned and rinsed with distilled water then rinsed twice with MeOH. Samples were kept in the freezer prior to testing. NSG Precision Quartz Cuvettes were used for absorption and spectral scans. Samples were diluted with methanol to a final volume of 5 mL. A 100× dilution of the samples in MeOH was performed. Absorption spectra were run using a Beckman DU-40 Spectrophotometer. Guided by absorption spectra, excitation and emission scans were run using an ISA Fluoromax-2 Fluorometer.
500 μL of MeOH was added into sample vial containing about 1 mg of testing compound, and aspirated with pipette to mix. 500 μL sample aliquot was then placed into 5 mL volumetric flask and brought up to volume with MeOH, and 5 mL was used as stock. Serial dilutions in 50 mL volumetric flasks were performed until final concentration of 100× reached. Dilution protocol was repeated for each sample. After dilution, 2.5 mL of sample was placed into a 3 mL Quartz cuvette and the cuvette was placed in ISA Fluoromax-2 Fluorometer. Absorption scan was run in Beckman DU-40 Spectrophotometer. Excitation and emission scans were run and spectral data were collected.

[4] abbreviates: mouse spleen membranes, [3H] CP-55,940, read-out: CB2 Ki.

Consider 23 compounds from patent US20050074408A1, “Keto cannabinoids with therapeutic indications” (University of Connecticut, priority 2002, published 2005).

As usually defined, the Ki is a dissociation constant, usually derived from enzyme kinetics or from competition with a known ligand.

The structures appear in SMILES notation. Read-outs that look alike come from different tables or passages of the source.

T2 sequence (P20272 whole entry): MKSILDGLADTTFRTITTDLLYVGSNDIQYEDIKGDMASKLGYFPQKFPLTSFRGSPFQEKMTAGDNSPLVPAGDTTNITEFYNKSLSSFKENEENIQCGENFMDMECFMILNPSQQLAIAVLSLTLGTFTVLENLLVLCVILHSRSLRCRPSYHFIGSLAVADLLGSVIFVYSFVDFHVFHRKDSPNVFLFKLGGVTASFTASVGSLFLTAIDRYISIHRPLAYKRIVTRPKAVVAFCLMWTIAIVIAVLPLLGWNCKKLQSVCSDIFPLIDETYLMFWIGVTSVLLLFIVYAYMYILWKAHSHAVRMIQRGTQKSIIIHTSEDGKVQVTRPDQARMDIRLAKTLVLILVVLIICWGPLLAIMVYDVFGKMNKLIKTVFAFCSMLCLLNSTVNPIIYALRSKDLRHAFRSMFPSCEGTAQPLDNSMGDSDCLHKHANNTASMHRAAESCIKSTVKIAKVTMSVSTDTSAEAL
T1 sequence (P47936 whole entry): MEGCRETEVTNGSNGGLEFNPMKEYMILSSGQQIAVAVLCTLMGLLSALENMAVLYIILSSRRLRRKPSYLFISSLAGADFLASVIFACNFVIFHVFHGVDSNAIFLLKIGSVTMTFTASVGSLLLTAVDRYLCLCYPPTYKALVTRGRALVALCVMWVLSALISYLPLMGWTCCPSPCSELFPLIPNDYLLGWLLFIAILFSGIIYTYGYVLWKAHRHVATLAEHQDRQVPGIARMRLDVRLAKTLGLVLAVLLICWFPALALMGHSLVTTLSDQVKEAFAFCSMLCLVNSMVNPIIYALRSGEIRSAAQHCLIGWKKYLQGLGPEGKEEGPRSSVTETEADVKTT

As for `CCCCCCc1cc2c3c(c(=O)oc2cc1O)CCC(C)C3` (centres unmarked) [Compound 1], the Ki is 5630 nM in series [1] (setting [4]) and 8610 nM in series [2].

Regarding `CCCCCC(C)Oc1cc(O)c2c3c(c(=O)oc2c1)CCC(C)C3` (centres unmarked) [Compound 2], in series [1] (setting [4]), the Ki came out at 25 nM. Besides, the affinity in series [2] corresponds to a Ki of 150 nM. In series [3], the “Absorbance Peak” value came out at 320 nm, the “Fluorescence Emission Peak” value was determined as 423 nm, the “Fluorescence Excitation Peak” value was found to be 326 nm and the “Mol Extinction” value turned out to be 13900 mol⁻¹ cm⁻¹ L⁻¹. In addition, the “Stoke's Shift” value in series [3] was found to be 97 nm.

Regarding `CCCCCCC(C)Oc1cc(O)c2c3c(c(=O)oc2c1)CCC(C)C3` (centres unmarked) [Compound 3], the Ki in series [1] (setting [4]) amounted to 6 nM; in series [2], 30 nM.

For `CCCCCCN(C)c1cc(O)c2c3c(c(=O)oc2c1)CCC(C)C3` (centres unmarked) [Compound 5], the Ki in series [1] (setting [4]) came to 1660 nM. In series [2], the Ki stood at 2000 nM. Further, in series [3], the “Absorbance Peak” value was 364 nm, the “Fluorescence Emission Peak” value is listed as 460 nm, the “Fluorescence Excitation Peak” value is reported as 368 nm and the “Mol Extinction” value stood at 18600 mol⁻¹ cm⁻¹ L⁻¹. Also, the “Stoke's Shift” value in series [3] is recorded as 92 nm.

For `CCCCCCCN(C)c1cc(O)c2c3c(c(=O)oc2c1)CCC(C)C3` (centres unmarked) [Compound 6], in series [1] (setting [4]), the Ki was 128 nM. In series [2], the affinity, expressed as Ki, was 122 nM. For the same compound, in series [3], the “Absorbance Peak” value amounted to 364 nm, the “Fluorescence Emission Peak” value is 460 nm, the “Fluorescence Excitation Peak” value worked out at 367 nm and the “Mol Extinction” value is 18000 mol⁻¹ cm⁻¹ L⁻¹. Besides, the “Stoke's Shift” value in series [3] was 93 nm.

As to `CCCCCCN(C)c1cc(O)cc2oc(=O)c3c(c12)CC(C)CC3` (centres unmarked) [Compound 7], the figures for the Ki in series [1] (setting [4]) and in series [2] were 288 nM and 160 nM, respectively.

Regarding `CCCCCCCN(C)c1cc(O)cc2oc(=O)c3c(c12)CC(C)CC3` (centres unmarked) [Compound 8], the Ki in series [1] was 824 nM; in series [2], 2580 nM.

For `CCCCCCCN(C)c1cc2oc(=O)c3ccc(C)cc3c2c(O)c1Br` [Compound 9], the Ki in series [1] (setting [4]) stood at 3 nM; in series [2] it was 50 nM.

In the case of `CCCCCCCN(C)c1cc(O)c2c(oc(=O)c3ccc(C)cc32)c1Br` [Compound 10], the Ki in series [1] (setting [4]) came out at 0.7 nM; in series [2], 9 nM.

Regarding `CCCCCCCN(C)c1cc(O)c2c(c1)oc(=O)c1ccc(C(F)(F)F)cc12` [Compound 11], the Ki was found to be 1680 nM in series [1] (setting [4]) and 6680 nM in series [2].

As for `CCCCCCCN(C)c1cc(OC)c2c(c1)oc(=O)c1ccc(C(F)(F)F)cc12` [Compound 12], the Ki in series [1] (setting [4]) turned out to be 1480 nM; in series [2], 6360 nM.

`CCCCCCCN(C)c1cc(O)c2c(c1)oc(=O)c1ccc(C)cc12` [Compound 13]: in series [1] (setting [4]), the Ki was found to be 16 nM. For the same compound, in series [2], the Ki came to 140 nM. Further, in series [3], the “Absorbance Peak” value is recorded as 316 nm, the “Fluorescence Emission Peak” value was 519 nm, the “Fluorescence Excitation Peak” value was found to be 319 nm and the “Mol Extinction” value amounted to 22700 mol⁻¹ cm⁻¹ L⁻¹. In series [3], the “Stoke's Shift” value is 200 nm.

Take `CCCCCCCN(C)c1cc(OC)c2c(c1)oc(=O)c1ccc(C)cc12` [Compound 14]: the Ki in series [1] (setting [4]) was 90 nM. Further, in series [2], the Ki stood at 1260 nM. For the same compound, in series [3], the “Absorbance Peak” value is on record as 405 nm, the “Fluorescence Emission Peak” value is recorded as 465 nm, the “Fluorescence Excitation Peak” value is given as 405 nm and the “Mol Extinction” value was found to be 11400 mol⁻¹ cm⁻¹ L⁻¹. The “Stoke's Shift” value in series [3] stood at 60 nm.

With `CCCCCCCN(C)c1cc(O)c2c(c1)oc(=O)c1ccc(O)cc12` [Compound 15], the Ki in series [1] (setting [4]) stood at 23 nM. This compound also yielded a Ki in series [2] of 990 nM. For the same compound, in series [3], the “Absorbance Peak” value came out at 318 nm, the “Fluorescence Emission Peak” value is on record as 502 nm, the “Fluorescence Excitation Peak” value came out at 320 nm and the “Mol Extinction” value was determined as 23400 mol⁻¹ cm⁻¹ L⁻¹. Also, the “Stoke's Shift” value in series [3] came out at 182 nm.

In series [1], `CCCCCCCN(C)c1cc(O)c2c(c1)oc(=O)c1ccc(OC)cc12` [Compound 16] returned a Ki of 148 nM. Further, in series [2], affinity was put at a Ki of 1300 nM. Besides, in series [3], the “Absorbance Peak” value is reported as 317 nm, the “Fluorescence Emission Peak” value is given as 498 nm, the “Fluorescence Excitation Peak” value was determined as 321 nm and the “Mol Extinction” value was found to be 21800 mol⁻¹ cm⁻¹ L⁻¹. In series [3], the “Stoke's Shift” value was determined as 177 nm.

In the case of `CCCCCCC(C)Oc1cc(O)c2c3c(c(=O)oc2c1)CCC(=O)C3` (centres unmarked) [Compound 17], the values for the Ki in series [1] and in series [2] were 0.4 nM and 304 nM, respectively.

For `CCCCCCC(C)Oc1cc(OC)c2c3c(c(=O)oc2c1)CCC(=O)C3` (centres unmarked) [Compound 18], the Ki amounted to 355 nM in series [1] (setting [4]) and 8430 nM in series [2].

As for `CCCCCCCC(C)(C)c1cc(OC)c2c3c(c(=O)oc2c1)CCC(=O)C3` [Compound 19], the Ki in series [1] (setting [4]) was 1 nM; in series [2], 40 nM.

Regarding `CCCCCCC(C)Oc1cc(OC(=O)CCCCN2CCOCC2)c2c3c(c(=O)oc2c1)CCC(=O)C3` (centres unmarked) [Compound 20], the Ki in series [1] (setting [4]) was determined as 0.6 nM; in series [2], 6 nM.

In the case of `CCCCCCCC(C)(C)c1cc(OC)c2c3c(c(=O)oc2c1)CCC(C)C3` (centres unmarked) [Compound 32], in series [3], the “Absorbance Peak” value was 327 nm, the “Fluorescence Emission Peak” value worked out at 390 nm, the “Fluorescence Excitation Peak” value turned out to be 330 nm and the “Stoke's Shift” value came to 60 nm.

In the case of `CCCCCCC(C)(C)c1cc(O)c2c(c1)oc(=O)c1ccccc12` [Compound 47], the Ki in series [1] (setting [4]) is 6.6 nM; in series [2], 4790 nM.

On to `CCCCCCC(C)(C)c1cc(O)c2c(c1)oc(=O)c1cc(O)c(O)cc12` [Compound 48], for which the Ki is 101 nM in series [1] (setting [4]) and 1950 nM in series [2].

On to `CCCCCCC(C)(C)c1cc(OC)c2c(c1)oc(=O)c1ccncc12` [Compound 49], for which the values for the Ki in series [1] (setting [4]) and in series [2] were 35.4 nM and 3760 nM, respectively.
